Measurements: patent publication EP3417074B1, “ANALYTICAL METHODS AND ARRAYS FOR USE IN THE SAME” (SenzaGen AB, priority 2016, dated 2017)
Several values for one entry are separate records, joined by “and”; a condition that tells them apart may be missing. Identical values can stand only once. Like-named read-outs stand apart in the source and are kept apart here.

How the values were obtained:
MUTZ-3 cells [1] = system: MUTZ-3 cells
human skin = conditions: cited from earlier work
MUTZ-3 cells [2] = conditions: for SVM DV: human
From the text: (§1) The SVM model had been developed for binary classifications (sensitizer versus non-sensitizer).

MUTZ-3 cells [3] = system: MUTZ-3 cells; remark: listed apart in the source
[4] = cited from earlier work; for binary class: Table 4; for binary class (HP*): Table 1, based on [41] where available, HP 1-4=S, 5-6=NS, otherwise according to CLP
MUTZ-3 cells [5] = assay: GARD random forest model for prediction of CLP categories (52 transcripts, Example A); conditions: for predicted CLP: Suppl. Table 1, separate replicates in the test set; for GARD predicted CLP: Table 6, independent test set, majority voting across replicates
MUTZ-3 cells [6] = assay: GARD binary classification (SVM on GARD prediction signature, 200 transcripts); conditions: Table 1; sensitizer if median calibrated SVM DV of replicates > 0
From the text: as §1

MUTZ-3 cells [7] = assay: Cytotoxicity / viability by flow cytometry (propidium iodide); conditions: Table 1, 24 hours exposure

## CC=Cc1ccc(OC)cc1 [anethole]
MUTZ-3 cells [1]; human, 24 h
  GARD predicted CLP: 1B
  predicted CLP: 1B
Human skin
  HP: 5
  Human potency [41]: 5

## Nc1ccccc1 [aniline]
MUTZ-3 cells [2]
  binary classification according to the established GARD model: misclassified
Human skin
  HP: 4
MUTZ-3 cells [3]
  cytotox: no

## O=C(O)c1ccccc1 [benzoic acid]
[4]
  binary class: non-sens
MUTZ-3 cells [5]
  predicted CLP: no cat
  GARD predicted CLP: no cat
MUTZ-3 cells [3]
  cytotox: no

## CC(C)(c1ccc(OCC2CO2)cc1)c1ccc(OCC2CO2)cc1 (stereo not shown) [bisphenol A-diglycidyl ether]
MUTZ-3 cells [6]
  GARD binary prediction: S
MUTZ-3 cells [5]
  predicted CLP: 1A
  GARD predicted CLP: 1A
Human skin
  HP: 3
  Human potency [41]: 3
MUTZ-3 cells [3]
  cytotox: yes

## CCCCOCC1CO1 (stereo not shown) [butyl glycidyl ether]
MUTZ-3 cells [1]; human, 24 h
  CLP category predicted by the random forest model: 1A
  GARD predicted CLP: 1A
MUTZ-3 cells [2]
  binary classification according to the established GARD model: misclassified
Human skin
  HP: 3
  Human potency [41]: 3
  human potency category: 3
MUTZ-3 cells [3]
  cytotox: yes

## CCOc1cc(C=O)ccc1O [ethyl vanillin]
MUTZ-3 cells [1]
  GARD predicted CLP: no cat
  predicted CLP: no cat
MUTZ-3 cells [1]; human, 24 h
  predicted CLP: 1B

## C=CCc1ccc(O)c(OC)c1 [eugenol]
MUTZ-3 cells [2]; 24 h
  SVM DV: 1,02
Human skin
  HP: 3
  Human potency: 3

## C=O [formaldehyde]
MUTZ-3 cells [2]
  SVM DV: 2,32
Human skin
  HP: 2
  Human potency: 2

## NC[C@H]1O[C@H](O[C@H]2[C@H](O)[C@@H](O[C@H]3O[C@H](CO)[C@@H](O)[C@H](N)[C@H]3O)[C@H](N)C[C@@H]2N)[C@H](O)[C@@H](O)[C@@H]1O [kanamycin A]
[4]
  binary class: non-sens
MUTZ-3 cells [3]
  cytotox: no

## CC(C=O)Cc1ccc(C(C)(C)C)cc1 (stereo not shown) [lilial]
MUTZ-3 cells [2]
  GARD binary prediction: S
[4]
  binary class (HP*): S
  binary class: sens
Human skin
  HP: 4
MUTZ-3 cells [3]
  cytotox: yes

## CC(C)(O)CCCC1=CCC(C=O)CC1 (stereo not shown) [lyral]
MUTZ-3 cells [7]
  cytotox: yes
MUTZ-3 cells [6]
  GARD binary prediction: S
[4]
  binary class (HP*): S
  binary class: sens
MUTZ-3 cells [5]
  predicted CLP: 1A (2×) and 1B
  GARD predicted CLP: 1A
MUTZ-3 cells [5]; test set, majority votes
  CLP category predicted by the random forest model: 1A
Human skin; Basketter et al. [41]
  human potency category: 2
Human skin; Table 4
  HP: 2
Human skin; Table 6, test set
  Human potency [41]: 2

## O=C1C=CC(=O)C=C1 [p-benzoquinone]
MUTZ-3 cells [7]
  cytotox: yes
MUTZ-3 cells [2]
  GARD binary prediction: S
MUTZ-3 cells [5]
  predicted CLP: 1A
  GARD predicted CLP: 1A

## Oc1ccccc1 [phenol]
MUTZ-3 cells [2]
  SVM DV: -1,08
Human skin
  HP: 6
  Human potency: 6

## CCCOC(=O)c1cc(O)c(O)c(O)c1 [propyl gallate]
MUTZ-3 cells [7]
  cytotox: yes
MUTZ-3 cells [6]
  GARD binary prediction: S
[4]
  binary class (HP*): S
  binary class: sens
MUTZ-3 cells [5]
  predicted CLP: 1A
  GARD predicted CLP: 1A
Human skin; Table 4
  HP: 2
Human skin; Table 6, test set
  Human potency [41]: 2

## c1ccncc1 [pyridine]
Human skin
  HP: 5
MUTZ-3 cells [3]
  cytotox: no

## CCCCCCCCCCCCOS(=O)(=O)[O-].[Na+] [sodium dodecyl sulfate]
MUTZ-3 cells [2]
  SVM DV: -1,52
Human skin
  HP: 6
  Human potency: 6
